{
  "source": "patent US20200113902A1",
  "about": "“COMPOSITIONS AND METHODS FOR TREATING CANCERS WITH COVALENT INHIBITORS OF CYCLIN-DEPENDENT KINASE 7 (CDK7)” (Syros Pharmaceuticals, Inc., priority 2017, published 2020)",
  "key": {"[1]": {"test_system": "Rad51, CHEK1 and CHEK2 mRNA in MDA-MB-468, MDA-MB-231, Ca1120 and MDA-MB-453", "assay": "Quantitative PCR of DNA damage repair genes, breast cancer cell lines", "type": "cell-based", "settings": "50 nM, 6 hrs", "procedure": "Breast cancer cell lines MDA-MB-468, MDA-MB-231, Ca1120 and MDA-MB-453 were plated at 200,000 cells/well in a 6-well plate the day before treatment. The next day the cells were treated with vehicle, 50 nM Compound 1 or 50 nM Paclitaxel for 6 hrs, after which cells were harvested and total RNA collected using RNeasy mini kit (Qiagen). Total RNA (500 ng) was reverse transcribed using Quantitect Reverse Transcription kit (Qiagen). Quantitative PCR for each of Rad51, CHEK1 and CHEK2 was performed on QuantStudio 6 Flex (Applied Biosystems) using Power SYBR green PCR master mix (Thermo Fisher Scientific) and primers specific for each of those genes. The change in gene expression, relative to housekeeping gene RPL27, was quantified using DDCt method."}, "[2]": {"test_system": "MCL1 protein in MDAMB453 cells", "assay": "Western blot of BCL2 family proteins, MDAMB453", "type": "cell-based, human", "settings": "50 nM or 100 nM, 24 hours", "procedure": "(§1) Cytotoxic cancer cell lines HCC70 and TOV21G, and cytostatic cancer cell lines T47D and COV318 were seeded in wells of a six-well dish at a density of 1×10^6 cells/well and allowed to adhere overnight. Cells were then treated with 50 nM of Compound 1 for 16 or 24 hours, or with DMSO (0 hours) representing a negative control. Cells were harvested and placed on ice, and resuspended in RIPA lysis buffer supplemented with protease and phosphatase inhibitors. Clarified lysates prepared with 4×LSD running buffer and boiled at 95° C. for 5 minutes. Equivalent amounts of sample (10 μg total protein) were run on a 4-12% Bis-Tris gel and transferred to a PDVF membrane for Western blotting using standard Western blotting protocols. Membranes were blocked with Licor TBS blocking buffer then probed with antibodies for BCL-XL, BCL-2, MCL1, BID, and GAPDH visualized using and Odyssey imager (FIGS. 23A and 23D).\nIn a similar experiment, TNBC breast cancer cell lines HCC70, MDAMB468, MDAMB453 and CAL-120 were grown as described above and treated with DMSO, 50 nM Compound 1 or 100 nM Compound 1 for 24 hours. Protein samples were prepared as described above for Western blotting using antibodies specific for the indicated proteins in FIG. 29A. […]"}, "leukemic cells": {"test_system": "leukemic cells", "settings": "leukemic vs non-malignant cells; previously shown; cited from earlier work"}, "[3]": {"test_system": "homologous recombination deficiency / carboplatin sensitivity genes in OvCar3 cells", "assay": "Nanostring PanCancer Pathways mRNA, OvCar3", "type": "cell-based", "settings": "50 nM, 16 hours", "procedure": "Ovarian Cell lines OvCar3, TOV21G, A2780 and COV318 were plated at 500,000 cells/well in a 6-well plate the day before treatment. The next day the cells were treated with vehicle or 50 nM Compound 1 for 0, 6, or 16 hours after which cells were harvested and total RNA collected using RNeasy mini kit (Qiagen). Changes in mRNA between samples were analyzed with Nanostring™ PanCancer Pathways Panels specifically analyzing genes related to homologous recombination deficiency and carboplatin sensitivity (ie. BRCA1, BRCA2, Rad51, ATM, ATR, MSH2, MSH6). Nanostring signal intensities were first normalized to housekeeping genes across all cell lines, and then normalized to the 0 hour timepoint within a cell line."}, "HCC70 xenografts": {"test_system": "HCC70 xenografts", "assay": "Subcutaneous HCC70 xenograft, tumor volume", "type": "in vivo, mouse", "settings": "40 mg/kg i.v. twice weekly (BIW), vehicle: increase in tumor volume", "procedure": "(§2) Subcutaneous HCC70 xenografts were established in BALC/c nude mice at ChemPartner (Shanghai, China). Each mouse was inoculated subcutaneously in the right flank with 5×10^6 HCC70 cells (ATCC, CAT #: CRL-2315) in 0.2 ml of a 1:1 mixture of base medium and Matrigel. Tumor sizes were measured in two dimensions using a caliper, and the volumes were expressed in mm^3 using the formula: V=0.5 a×b^2 where a and b are the longest and shortest diameters of the tumor, respectively. Compound 1 treatment was started when the average tumor size reached 181 mm^3.\nCompound 1 was formulated in w/v 20% Captisol (pH 4-6) and administered by i.v. twice weekly (BIW) at a final dose of 40 mg/kg in a 10 ml/kg volume. Mice in the vehicle arm were given the same dosing schedules, volumes, and formulations, but lacking Compound 1. Tumor volumes were measured twice weekly over the course of the study."}, "[4]": {"test_system": "MCL1 protein in HCC70 xenograft tumor", "assay": "HCC70 xenograft tumor, Western blot", "type": "in vivo", "settings": "HCC70 xenograft mouse; single dose of 40 mg/kg", "procedure": "as §1\nas §2, with “Compound 1 treatment was started when the average tumor size reached 181 mm^3.” left out"}},
  "data": [
    {"smiles": "CN(C)C/C=C/C(=O)Nc1ccc(C(=O)N[C@@]2(C)CCC[C@@H](Nc3ncc(Cl)c(-c4c[nH]c5ccccc45)n3)C2)nc1", "note": "[Compound 1, N-((1S,3R)-3-(5-chloro-4-(1H-indol-3-yl)pyrimidin-2-ylamino)-1-methylcyclohexyl)-5-((E)-4-(dimethylamino)but-2-enamido)picolinamide]", "values": [
      {"measurement": "mRNA expression from genes involved in DNA repair (Rad51, CHEK1, CHEK2)", "setting": "[1]", "result": "Downregulation"},
      {"measurement": "MCL1 protein level (Western blot)", "setting": "[2]", "result": "downregulated"},
      {"measurement": "Induction of apoptosis in vitro", "setting": "leukemic cells", "result": "selectively induce apoptosis in leukemic cells relative to non-malignant cells"},
      {"measurement": "mRNA of genes related to homologous recombination deficiency and carboplatin sensitivity, all genes except Rad51 (BRCA1, BRCA2, ATM, ATR, MSH2, MSH6)", "setting": "[3]", "result": "downregulated"},
      {"measurement": "Tumor volume", "setting": "HCC70 xenografts", "result": "reduction in tumor volume"},
      {"measurement": "MCL1 protein expression in tumor (Western blot)", "setting": "[4]", "result": "reduced MCL1 protein expression"}
    ]}
  ]
}
